Test results: patent publication US10577378B2, “EIF4A-inhibiting compounds and methods related thereto” (eFFECTOR Therapeutics, Inc., priority 2015, dated 2020)

What follows are compounds tested on MDA-MB-231 human breast cancer cells (assay: Cell proliferation assay (CellTiter-Glo, 72 hours treatment)). Conditions: Homo sapiens; MDA-MB-231 cells, 72 hours at 37° C., CellTiter-Glo; read-out: MDA-MB-231 cell proliferation assay (IC50).
Type: cell-based
Summary of the method: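 MDA-MB-231 cells seeded at 2,500 cells/well, treated next day with compound or DMSO vehicle for 72 h at 37 °C. Proliferation read by CellTiter-Glo; IC50 from sigmoidal non-linear regression, binned as +++ (<100 nM), ++ (100–1000 nM), + (>1000 nM).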
`O=C1C[C@@H](c2ccccc2)[C@]2(c3ccc(Br)cc3)Oc3cc(Cl)cnc3[C@]12O` (racemic) [129F, Rac-(5aR,6S,8aR)-5a-(4-bromophenyl)-3-chloro-8a-hydroxy-6-phenyl-5a,6,7,8a-tetrahydro-8H-cyclopenta[4,5]furo[3,2-b]pyridin-8-one] was tested, and the IC50 was > 1000 nM. In the case of `O[C@H]1C[C@@H](c2ccccc2)[C@]2(c3ccc(Br)cc3)Oc3cc(Cl)cnc3[C@]12O` (racemic) [130F, Rac-(5aR,6S,8S,8aS)-5a-(4-bromophenyl)-3-chloro-6-phenyl-5a,6,7,8-tetrahydro-8aH-cyclopenta[4,5]furo[3,2-b]pyridine-8,8a-diol], the IC50 is reported as > 1000 nM. In the case of `N#Cc1ccc([C@@]23Oc4cc(Cl)cnc4[C@]2(O)[C@@H](O)C[C@H]3c2ccccc2)cc1` (racemic) [131F, Rac-4-((5aR,6S,8S,8aS)-3-chloro-8,8a-dihydroxy-6-phenyl-6,7,8,8a-tetrahydro-5aH-cyclopenta[4,5]furo[3,2-b]pyridin-5a-yl)benzonitrile], the IC50 is reported as > 1000 nM. With `Cc1ccc(S(=O)(=O)NN=C2C[C@@H](c3ccccc3)[C@]3(c4ccc(Br)cc4)Oc4cc(Cl)cnc4[C@]23O)cc1` (racemic) [132F, Rac-N′-((5aR,6S,8aS)-5a-(4-bromophenyl)-3-chloro-8a-hydroxy-6-phenyl-5a,6,7,8a-tetrahydro-8H-cyclopenta[4,5]furo[3,2-b]pyridin-8-ylidene)-4-methylbenzenesulfonohydrazide] the IC50 was > 1000 nM. With `O[C@@]12C=C[C@@H](c3ccccc3)[C@]1(c1ccc(Br)cc1)Oc1cc(Cl)cnc12` (racemic) [133F, Rac-(5aR,6S,8aR)-5a-(4-bromophenyl)-3-chloro-6-phenyl-5a,6-dihydro-8aH-cyclopenta[4,5]furo[3,2-b]pyridin-8a-ol] the IC50 was > 1000 nM. For `COc1cncc2c1[C@]1(O)[C@H](O)[C@H](C(=O)N3CCC(F)(F)CC3)[C@@H](c3ccccc3)[C@]1(c1ccc(Br)cc1)O2` (racemic) [135F, Rac-((4bS,5R,6R,7S,7aR)-7a-(4-bromophenyl)-4b,5-dihydroxy-4-methoxy-7-phenyl-4b,6,7,7a-tetrahydro-5H-cyclopenta[4,5]furo[2,3-c]pyridin-6-yl)(4,4-difluoropiperidin-1-yl)methanone], the IC50 was < 100 nM. `COC(=O)[C@H]1[C@@H](O)[C@@]2(O)c3c(cc(Cl)nc3OC)O[C@@]2(c2ccc(Br)cc2)[C@@H]1c1ccccc1` (racemic) [136F, Rac-Methyl (5aR,6S,7R,8R,8aS)-5a-(4-bromophenyl)-3-chloro-8,8a-dihydroxy-1-methoxy-6-phenyl-5a,7,8,8a-tetrahydro-6H-cyclopenta[4,5]furo[3,2-c]pyridine-7-carboxylate] was tested, and the IC50 was < 100 nM. In the case of `COc1nc(Cl)cc2c1[C@]1(O)[C@H](O)[C@H](C(=O)N(C)C)[C@@H](c3ccccc3)[C@]1(c1ccc(Br)cc1)O2` (racemic) [137F, Rac-(5aR,6S,7R,8R,8aS)-5a-(4-bromophenyl)-3-chloro-8,8a-dihydroxy-1-methoxy-N,N-dimethyl-6-phenyl-5a,7,8,8a-tetrahydro-6H-cyclopenta[4,5]furo[3,2-c]pyridine-7-carboxamide], the IC50 is reported as < 100 nM. In the case of `COc1nc(Cl)cc2c1[C@]1(O)[C@H](O)[C@H](CN(C)C)[C@@H](c3ccccc3)[C@]1(c1ccc(Br)cc1)O2` (racemic) [138F, Rac-(5aR,6S,7S,8R,8aS)-5a-(4-bromophenyl)-3-chloro-7-((dimethylamino)methyl)-1-methoxy-6-phenyl-5a,6,7,8-tetrahydro-8aH-cyclopenta[4,5]furo[3,2-c]pyridine-8,8a-diol], the IC50 is reported as < 100 nM. In the case of `COc1nccc2c1[C@]1(O)[C@H](O)[C@H](CN(C)C)[C@@H](c3ccccc3)[C@]1(c1ccc(C#N)cc1)O2` (racemic) [141F, Rac-4-((5aR,6S,7S,8R,8aS)-7-((dimethylamino)methyl)-8,8a-dihydroxy-1-methoxy-6-phenyl-6,7,8,8a-tetrahydro-5aH-cyclopenta[4,5]furo[3,2-c]pyridin-5a-yl)benzonitrile], the IC50 is reported as 100 to 1000 nM. With `COc1nc(Cl)cc2c1[C@]1(O)[C@H](O)[C@H](CN(C)C)[C@@H](c3ccccc3)[C@]1(c1ccc(Cl)cc1)O2` (racemic) [142F, Rac-(5aR,6S,7S,8R,8aS)-3-chloro-5a-(4-chlorophenyl)-7-((dimethylamino)methyl)-1-methoxy-6-phenyl-5a,6,7,8-tetrahydro-8aH-cyclopenta[4,5]furo[3,2-c]pyridine-8,8a-diol] the IC50 was < 100 nM. With `COc1nc(Cl)cc2c1[C@]1(O)[C@H](O)[C@H](CN(C)C)[C@@H](c3ccccc3)[C@]1(c1ccc(C(F)F)cc1)O2` (racemic) [143F, Rac-(5aR,6S,7S,8R,8aS)-3-chloro-5a-(4-(difluoromethyl)phenyl)-7-((dimethylamino)methyl)-1-methoxy-6-phenyl-5a,6,7,8-tetrahydro-8aH-cyclopenta[4,5]furo[3,2-c]pyridine-8,8a-diol] the IC50 was < 100 nM. For `COc1nc(Cl)cc2c1[C@]1(O)[C@H](O)[C@H](CN(C)C)[C@@H](c3ccccc3)[C@]1(c1ccc(C(F)(F)F)cc1)O2` (racemic) [144F, Rac-(5aR,6S,7S,8R,8aS)-3-chloro-7-((dimethylamino)methyl)-1-methoxy-6-phenyl-5a-(4-(trifluoromethyl)phenyl)-5a,6,7,8-tetrahydro-8aH-cyclopenta[4,5]furo[3,2-c]pyridine-8,8a-diol], the IC50 was < 100 nM. `COc1nc(C#N)cc2c1[C@]1(O)[C@H](O)[C@H](CN(C)C)[C@@H](c3ccccc3)[C@]1(c1ccc(C(F)F)cc1)O2` (racemic) [146F, Rac-(5aR,6S,7S,8R,8aS)-5a-(4-(difluoromethyl)phenyl)-7-((dimethylamino)methyl)-8,8a-dihydroxy-1-methoxy-6-phenyl-5a,7,8,8a-tetrahydro-6H-cyclopenta[4,5]furo[3,2-c]pyridine-3-carbonitrile] was tested, and the IC50 was < 100 nM. With `COc1nccc2c1[C@]1(O)[C@H](O)[C@H](CN(C)C)[C@@H](c3ccccc3)[C@]1(c1ccc(C(F)F)cc1)O2` (racemic) [148F, Rac-(5aR,6S,7S,8R,8aS)-5a-(4-(difluoromethyl)phenyl)-7-((dimethylamino)methyl)-1-methoxy-6-phenyl-5a,6,7,8-tetrahydro-8aH-cyclopenta[4,5]furo[3,2-c]pyridine-8,8a-diol] the IC50 was > 1000 nM. `COc1nccc2c1[C@]1(O)[C@H](O)[C@H](CN(C)C)[C@@H](c3ccccc3)[C@]1(c1ccc(C(F)(F)F)cc1)O2` (racemic) [149F, Rac-(5aR,6S,7S,8R,8aS)-7-((dimethylamino)methyl)-1-methoxy-6-phenyl-5a-(4-(trifluoromethyl)phenyl)-5a,6,7,8-tetrahydro-8aH-cyclopenta[4,5]furo[3,2-c]pyridine-8,8a-diol] was tested, and the IC50 was > 1000 nM. `CNc1cc2c(c(OC)n1)[C@]1(O)[C@H](O)[C@H](CN(C)C)[C@@H](c3ccccc3)[C@]1(c1ccc(C#N)cc1)O2` (racemic) [150F, Rac-4-((5aR,6S,7S,8R,8aS)-7-((dimethylamino)methyl)-8,8a-dihydroxy-1-methoxy-3-(methylamino)-6-phenyl-6,7,8,8a-tetrahydro-5aH-cyclopenta[4,5]furo[3,2-c]pyridin-5a-yl)benzonitrile] was tested, and the IC50 was < 100 nM. `COc1nc(Cl)cc2c1[C@]1(O)[C@H](O)[C@H](CN3CCOCC3)[C@@H](c3ccccc3)[C@]1(c1ccc(C#N)cc1)O2` (racemic) [152F, Rac-4-((5aR,6S,7S,8R,8aS)-3-chloro-8,8a-dihydroxy-1-methoxy-7-(morpholinomethyl)-6-phenyl-6,7,8,8a-tetrahydro-5aH-cyclopenta[4,5]furo[3,2-c]pyridin-5a-yl)benzonitrile] was tested, and the IC50 was < 100 nM. `COc1nc(C#N)cc2c1[C@]1(O)[C@H](O)[C@H](CN3CCC(F)(F)C3)[C@@H](c3ccccc3)[C@]1(c1ccc(C#N)cc1)O2` (racemic) [153F, Rac-(5aR,6S,7S,8R,8aS)-5a-(4-cyanophenyl)-7-((3,3-difluoropyrrolidin-1-yl)methyl)-8,8a-dihydroxy-1-methoxy-6-phenyl-5a,7,8,8a-tetrahydro-6H-cyclopenta[4,5]furo[3,2-c]pyridine-3-carbonitrile] showed an IC50 of 100 to 1000 nM. `COc1nc(C#N)cc2c1[C@]1(O)[C@H](O)[C@H](CN3CCCC(F)(F)C3)[C@@H](c3ccccc3)[C@]1(c1ccc(C#N)cc1)O2` (racemic) [154F, Rac-(5aR,6S,7S,8R,8aS)-5a-(4-cyanophenyl)-7-((3,3-difluoropiperidin-1-yl)methyl)-8,8a-dihydroxy-1-methoxy-6-phenyl-5a,7,8,8a-tetrahydro-6H-cyclopenta[4,5]furo[3,2-c]pyridine-3-carbonitrile] was tested, and the IC50 was 100 to 1000 nM. `COc1nc(C#N)cc2c1[C@]1(O)[C@H](O)[C@H](CNC(C)(C)C)[C@@H](c3ccccc3)[C@]1(c1ccc(C#N)cc1)O2` (racemic) [155F, Rac-(5aR,6S,7S,8R,8aS)-7-((tert-butylamino)methyl)-5a-(4-cyanophenyl)-8,8a-dihydroxy-1-methoxy-6-phenyl-5a,7,8,8a-tetrahydro-6H-cyclopenta[4,5]furo[3,2-c]pyridine-3-carbonitrile] showed an IC50 of 100 to 1000 nM. For `COc1nc(C#N)cc2c1[C@]1(O)[C@H](O)[C@H](CN3CCC(F)CC3)[C@@H](c3ccccc3)[C@]1(c1ccc(Br)cc1)O2` (racemic) [156Fa, Rac-(5aR,6S,7S,8R,8aS)-5a-(4-bromophenyl)-7-((4-fluoropiperidin-1-yl)methyl)-8,8a-dihydroxy-1-methoxy-6-phenyl-5a,7,8,8a-tetrahydro-6H-cyclopenta[4,5]furo[3,2-c]pyridine-3-carbonitrile], the IC50 was < 100 nM. For `COc1nc(Cl)cc2c1[C@]1(O)[C@H](O)[C@H](CN3CCC(F)CC3)[C@@H](c3ccccc3)[C@]1(c1ccc(C#N)cc1)O2` (racemic) [156Fb, Rac-4-((5aR,6S,7S,8R,8aS)-3-chloro-7-((4-fluoropiperidin-1-yl)methyl)-8,8a-dihydroxy-1-methoxy-6-phenyl-6,7,8,8a-tetrahydro-5aH-cyclopenta[4,5]furo[3,2-c]pyridin-5a-yl)benzonitrile], the IC50 was < 100 nM.
